This note sets out measurements from the NIST ThermoML archive (doi:10.1016/j.jct.2012.02.023).

For the series the following is noted: Liquid; for speed of sound / mass density: 101.33 kPa; for speed of sound: Sing-around technique in a fixed-path interferometer; for mass density: Vibrating tube method; for vapor or sublimation pressure: Closed cell (Static) method.

SMILES strings stand for the structures. Numbers after ± are expanded uncertainties.

For orientation: speed of sound means how fast a sound wave travels through the sample. In general, mass density refers to mass per unit of volume. By vapor or sublimation pressure is commonly meant the pressure of vapour in equilibrium with the condensed phase. For `CO` [methanol], the speed of sound is on record as 1118.8 ± 1.2 m/s (293.15 K), 1086 ± 1.1 m/s (303.15 K), 1053.5 ± 1.1 m/s (313.15 K) and 1021.5 ± 1.1 m/s (323.15 K). The mass density is 791.243 ± 0.12 kg/m3 (293.15 K), 781.813 ± 0.13 kg/m3 (303.15 K), 772.287 ± 0.13 kg/m3 (313.15 K) and 762.628 ± 0.14 kg/m3 (323.15 K). The “vapor or sublimation pressure” value (303.15 K) was determined as 21.93 ± 0.08 kPa and the “vapor or sublimation pressure” value (323.15 K) is 55.78 ± 0.12 kPa.

Turning to `CCCC[n+]1ccc(C)cc1.F[B-](F)(F)F` [1-butyl-4-methylpyridinium tetrafluoroborate], the speed of sound by setting is: (293.15 K) 1611.8 ± 1.6 m/s; (303.15 K) 1586.7 ± 1.6 m/s; (313.15 K) 1562.8 ± 1.6 m/s; (323.15 K) 1539.3 ± 1.6 m/s. The mass density is, setting by setting: (293.15 K) 1185.92 ± 0.38 kg/m3; (303.15 K) 1179.12 ± 0.38 kg/m3; (313.15 K) 1172.12 ± 0.37 kg/m3; (323.15 K) 1165.52 ± 0.37 kg/m3.

Turning to `CCO` [ethanol], the speed of sound runs as follows: (293.15 K) 1160.1 ± 1.2 m/s; (303.15 K) 1127.2 ± 1.2 m/s; (313.15 K) 1093.6 ± 1.2 m/s; (323.15 K) 1060.4 ± 1.2 m/s. For the same compound, the mass density is, setting by setting: (293.15 K) 789.481 ± 0.15 kg/m3; (303.15 K) 781.302 ± 0.15 kg/m3; (313.15 K) 772.569 ± 0.15 kg/m3; (323.15 K) 763.647 ± 0.16 kg/m3. Moreover, the “vapor or sublimation pressure” value (303.15 K) is 10.47 ± 0.045 kPa and the “vapor or sublimation pressure” value (323.15 K) turned out to be 29.57 ± 0.067 kPa.

Consider `CCCC[n+]1cccc(C)c1.F[B-](F)(F)F` [1-butyl-3-methylpyridinium tetrafluoroborate], for which the speed of sound is, setting by setting: (293.15 K) 1598.5 ± 1.6 m/s; (303.15 K) 1573.8 ± 1.6 m/s; (313.15 K) 1550.1 ± 1.6 m/s; (323.15 K) 1527 ± 1.6 m/s. Also, the mass density (293.15 K) is recorded as 1185.65 ± 0.38 kg/m3, the mass density (303.15 K) amounted to 1178.86 ± 0.38 kg/m3, the mass density (313.15 K) is 1172.11 ± 0.37 kg/m3 and the mass density (323.15 K) stood at 1165.37 ± 0.37 kg/m3.
